According to US11279733B2, “Peptide antibiotics” (priority 2017, dated 2022):
≈ marks a conversion by molar mass, not a printed value. Starred links: 1 amine or outer side, 2 acyl side, 3 side chain; linkers in the order of their positions; H or OH if unused. Positions of bridges follow the written chain, without caps; N, C: chain ends. Non-standard residues stand in square brackets, D forms with d. Residues, ends and D or L forms follow the SMILES beside them. *: point of attachment. Decanoyl(3R-OH) = CCCCCCC[C@@H](O)CC(=O)*; azaDab = NCCN(N[*:1])C(=O)[*:2]; dDab = NCC[C@@H](N)C(=O)O; dDap = NC[C@@H](N)C(=O)O; Dab = NCC[C@H](N)C(=O)O

Columns and labels:
[1] = system: K. pneumoniae ATCC BAA-2146, NDM-1 pos; details: ATCC BAA-2146
Outline: (§1)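 Mid-log cultures grown in Mueller Hinton broth at 37° C were tested by 2-fold broth microdilution at 5×10^5 CFU/mL final. Compounds were dissolved in water and tested over a final range of 32 to 0.015 μg/mL.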

[2] = system: P. aeruginosa GN_043, PmxR; details: for MIC, P. aeruginosa FADDI-PA070, PmxR: strain name as in Table 11
Outline: as §1

E. coli ATCC 25922 = details: ATCC 25922
Outline: as §1

[3] = system: K. pneumoniae ATCC 700603, MDR; details: ATCC 700603
Outline: as §1

P. aeruginosa ATCC 27853 = details: ATCC 27853
Outline: as §1

A. baumannii ATCC 19606 = details: ATCC 19606
Outline: as §1

[4] = system: K. pneumoniae GN_106, PmxR; details: GN 106, PmxR
Outline: as §1

[5] = system: K. pneumoniae GN_102 PmxR; details: GN 102 PmxR
Outline: as §1

A. baumannii GN_093 PmxR = details: GN 093 PmxR
Outline: as §1

K. pneumoniae ATCC 13883 = details: ATCC 13883
Outline: as §1

[6] = system: P. aeruginosa GN_105, PmxR; details: GN 105, PmxR
Outline: as §1

[7] = system: S. aureus ATCC 25923, MSSA; details: ATCC 25923
Outline: as §1

[8] = In vitro nephrotoxicity, LDH release from primary human kidney cells; format: cell-based; details: pH 7.4
Excerpt: (§2) hPT cells were derived from whole human kidneys procured by the International Institute for the Advancement of Medicine (Edison, N.J., USA). All tissue was scored by a pathologist as normal (i.e., derived from non-cancerous, non-diseased tissue). Cell isolation procedures were based on those originally described by Todd et al. (1996) and modified (Cummings and Lash, 2000; Cummings et al., 2000) with use of sterile conditions (i.e., all instruments and glassware were autoclaved and all buffers were filtered through a 0.2-μm pore-size filter). Renal cortex and outer stripe were cut into slices, washed with sterile PBS, minced, and the pieces were placed in a trypsinization flask filled with 300 ml of sterile, filtered Hanks' buffer, containing 25 mM NaHCO3, 25 mM HEPES, pH 7.4, 0.5 mM EGTA, 0.2% (w/v) bovine serum albumin, 50 μg/ml gentamicin, 1.3 mg/mL collagenase, and 0.59 mg/ml CaCl2), which was filtered prior to use. Whole kidneys were perfused with Wisconsin medium and kept on ice until they arrived at the laboratory, which was usually within 24 h of removal from the donor.
(§3) All buffers were continuously bubbled with 95% O2/5% CO2 and were maintained at 37° C. Minced cortical pieces from whole kidneys were subjected to collagenase digestion for 60 min, after which the supernatant was filtered through a 70-μm mesh filter to remove tissue fragments, centrifuged at 150×g for 7 min, and the pellet resuspended in Dulbecco's Modified Eagle's Medium: Ham's F12 Medium (DMEM/F12; 1/1). Approximately 5 to 7×10^6 cells were obtained per 1 g of human kidney cortical tissue.
(§4) hPT cells were resuspended in 2 mL of DMEM/F12 and diluted to 500 mL with cell culture medium, which was serum-free and hormonally-defined. Composition of this supplemented medium was based on earlier work establishing optimal conditions for primary culture of rat PT cells (Lash et al., 1995). Basal medium was a 1:1 mixture of DMEM/F12. […] Cells were seeded in a volume of 0.5 ml at a density of 50-100 μg protein per cm^2 (0.5-1.0×10^6 cells/ml) on 24-well plates. Cultures were grown at 37° C. in a humidified incubator under an atmosphere of 95% air/5% CO2 at pH 7.4. Cultures were grown to approximately 80%-90% confluence (generally 5-6 days) prior to experiments. Cells were harvested by either scraping the flasks with a Teflon scraper or by brief incubation with Cellstripper (Cellgro, Herndon, Va., USA) (in Ca^2+- and Mg^2+-free Hanks' buffer).

[9] = In vitro nephrotoxicity, GGT release from primary human kidney cells; format: cell-based; details: pH 7.4
Excerpt: as §2, §3, §4
Release of gamm-glutanyltransferase was assessed according to Orlowski, M., Meister, A. 1963. γ-Glutamyl-p-nitroanilide: A new convenient substrate for determination and study of L- and D-γ-glutamyltranspeptidase activities (Biochim. Biophys. Acta 73: 679-681.)
A 2.5 mM substrate Solution was prepared from 67 mg γ-glutamyl-p-nitroanilide+264 mg glycylglycine in 100 mL of 0.05 M Tris, pH 8.2 (50 mM Tris, pH 8.2: 605 mg Tris/HCl per 100 mL).
For the assay in 96-well plates, 6-μL of sample and 0.3 mL substrate solution were added to each well. The absorbance was measured at 410 nm for the appearance of product, p-nitroanilide (molar extinction=8800 M^−1 cm^−1).

in vitro [10] = details: human
Outline: (§5)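 Compound exposure lasted 24 h, following 24 h attachment of 4000 cells/well at 37° C under 5% CO2.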

HEK293 cells = assay: in vitro; details: human, 24 h
Outline: as §5

HepG2 cells = assay: in vitro; details: human, 24 h
Outline: as §5

in vitro [11] = details: human; remark: listed apart in the source
Outline: as §5

Neisseria gonorrhoeae = assay: MIC determination, Neisseria gonorrhoeae; format: cell-based; details: for MIC N. gonorrhoeae FA19 ATCC BAA-1838: strain FA19 ATCC BAA-1838
Outline: as §1

Structure (SMILES)	MIC K. pneumoniae ATCC BAA-2146, NDM-1 pos [1]	MIC, P. aeruginosa FADDI-PA070, PmxR [2]	MIC E. coli ATCC 25922 (E. coli ATCC 25922)	MIC K. pneumoniae ATCC 700603, MDR [3]	MIC P. aeruginosa ATCC 27853 (P. aeruginosa ATCC 27853)	MIC A. baumannii ATCC 19606 (A. baumannii ATCC 19606)	MIC K. pneumoniae Cl 183-16357-20352, PmxR [4]	MIC K. pneumoniae Cl Koprana 10065 0661:1 PmxR [5]	MIC A. baumannii Cl Ptyela 10073 4512:2, PmxR (A. baumannii GN_093 PmxR)	MIC K. pneumoniae ATCC 13883 (K. pneumoniae ATCC 13883)	MIC P. aeruginosa PA9704, PmxR [6]	MIC S. aureus ATCC 25923, MSSA [7]	CC50 [8]	CC50 [9]	CC50 at 24 h (in vitro [10])	MIC N. gonorrhoeae FA19 ATCC BAA-1838 (Neisseria gonorrhoeae)	also measured
CCCCCCC[C@@H](O)CC(=O)N[C@H](CCN)C(=O)N[C@H]1CCNC(=O)[C@H](CC(C)C)NC(=O)[C@H](CCN)NC(=O)N(CCN)NC(=O)[C@H](CC(C)C)NC(=O)[C@@H](Cc2ccccc2)NC(=O)[C@H](CCN)NC1=O [compound 8641, 3(R)OH-nC9CO-D-Dab-cyc[L-Dab-L-DAB-D-Phe-L-Leu-azaDab-L-Dab-L-Leu]] ({Decanoyl(3R-OH)}-[dDab][Dab][Dab][dF]L[azaDab][Dab]L; lactam 2-C)	8 µg/mL (≈ 7.65 µM)	2 µg/mL (≈ 1.91 µM)	4 µg/mL (≈ 3.83 µM)	4 µg/mL (≈ 3.83 µM)	2 µg/mL (≈ 1.91 µM)	8 µg/mL (≈ 7.65 µM)	4 µg/mL (≈ 3.83 µM)	2 µg/mL (≈ 1.91 µM)	32 µg/mL (≈ 30.6 µM)	4 µg/mL (≈ 3.83 µM)	2 µg/mL (≈ 1.91 µM)	32 µg/mL (≈ 30.6 µM)	> 128 µg/mL	> 128 µg/mL	> 300 µM		CC50 (HEK293 cells): > 300 µM; CC50 (HepG2 cells): > 300 µM; CC50 at 24 h (in vitro [11]): > 300 µM
CCCCCCC[C@@H](O)CC(=O)NN(CCN)C(=O)N[C@H]1CCNC(=O)[C@H](CC(C)C)NC(=O)[C@H](CCN)NC(=O)[C@H](CCN)NC(=O)[C@H](CC(C)C)NC(=O)[C@@H](Cc2ccccc2)NC(=O)[C@H](CCN)NC1=O [compound 8639, 3(R)OH-nC9CO-azaDab-cyc[L-Dab-L-DAB-D-Phe-L-Leu-L-Dab-L-Dab-L-Leu]] ({Decanoyl(3R-OH)}-[azaDab][Dab][Dab][dF]L[Dab][Dab]L; lactam 2-C)	4 µg/mL (≈ 3.83 µM)	2 µg/mL (≈ 1.91 µM)	2 µg/mL (≈ 1.91 µM)	2 µg/mL (≈ 1.91 µM)	2 µg/mL (≈ 1.91 µM)	4 µg/mL (≈ 3.83 µM)	2 µg/mL (≈ 1.91 µM)	2 µg/mL (≈ 1.91 µM)	8 µg/mL (≈ 7.65 µM)	4 µg/mL (≈ 3.83 µM)	2 µg/mL (≈ 1.91 µM)	8 µg/mL (≈ 7.65 µM)	> 128 µg/mL	> 128 µg/mL		0.78 µg/mL (≈ 0.746 µM)	
CCCCCCC[C@@H](O)CC(=O)N[C@H](CN)C(=O)N[C@H]1CCNC(=O)[C@H](CC(C)C)NC(=O)[C@H](CCN)NC(=O)[C@H](CCN)NC(=O)[C@H](CC(C)C)NC(=O)[C@@H](Cc2ccccc2)NC(=O)[C@H](CCN)NC1=O [compound 6442, 3(R)OH-nC9CO-D-Dap-cyc[L-Dab-L-Dab-D-Phe-L-Leu-L-Dab-L-Dab-L-Leu]] ({Decanoyl(3R-OH)}-[dDap][Dab][Dab][dF]L[Dab][Dab]L; lactam 2-C)													> 128 µg/mL	> 128 µg/mL	> 300 µM	1.56 µg/mL (≈ 1.51 µM)	MIC, K. pneumoniae ATCC BAA-2146, NDM-1 pos [1]: 8 µg/mL (≈ 7.76 µM); MIC P. aeruginosa GN_043, PmxR ([2]; Table 6, polymyxin-resistant): 2 µg/mL (≈ 1.94 µM); MIC, E. coli ATCC 25922 (E. coli ATCC 25922): 2 µg/mL (≈ 1.94 µM); MIC, K. pneumoniae ATCC 700603, MDR [3]: 4 µg/mL (≈ 3.88 µM); MIC, P. aeruginosa ATCC 27853 (P. aeruginosa ATCC 27853): 2 µg/mL (≈ 1.94 µM); MIC, A. baumannii ATCC 19606 (A. baumannii ATCC 19606): 4 µg/mL (≈ 3.88 µM); MIC K. pneumoniae GN_106, PmxR [4]: 4 µg/mL (≈ 3.88 µM); MIC K. pneumoniae GN_102 PmxR [5]: 2 µg/mL (≈ 1.94 µM); MIC A. baumannii GN_093 PmxR (A. baumannii GN_093 PmxR): 4 µg/mL (≈ 3.88 µM); MIC, K. pneumoniae ATCC 13883 (K. pneumoniae ATCC 13883): 4 µg/mL (≈ 3.88 µM); MIC P. aeruginosa GN_105, PmxR [6]: 2 µg/mL (≈ 1.94 µM); MIC, S. aureus ATCC 25923, MSSA [7]: 16 µg/mL (≈ 15.5 µM); MIC N. gonorrhoeae F89 (Neisseria gonorrhoeae; strain F89): 1.56 µg/mL (≈ 1.51 µM); MIC N. gonorrhoeae FA1090 A25 ATCC 700825 (Neisseria gonorrhoeae; strain FA1090 A25 ATCC 700825): 1.3 µg/mL (≈ 1.26 µM); MIC N. gonorrhoeae H041 (Neisseria gonorrhoeae; strain H041): 1.56 µg/mL (≈ 1.51 µM)
